Results from patent publication US20240317727A1 (Duke University, priority 2018, published 2024).

Biological target: T1, recombinant HSF1 DNA-binding domain (DBD) (Homo sapiens, UniProt Q00613)
T1 sequence (Q00613 15-120): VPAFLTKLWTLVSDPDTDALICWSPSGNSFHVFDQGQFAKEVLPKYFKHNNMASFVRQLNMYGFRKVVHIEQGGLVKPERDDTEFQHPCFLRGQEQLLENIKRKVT
Test: Differential Scanning Fluorimetry (DSF), HSF1 DBD melting temperature
Conditions: 5 μM HSF1 DBD, 25PM Compound, positive = stabilizes, negative = destabilizes HSF1

Row | ΔTm at 25 µM (Table 3) [°C] | ΔTm at 25 µM (Table 1) [°C] | Compound | other results
1 | 5.7 | – | O=C(Nc1ccc(F)c(F)c1)Nc1ccc(Cl)c([N+](=O)[O-])c1 [Compound 034, 1-(4-chloro-3-nitrophenyl)-3-(3,4-difluorophenyl)urea] | –
2 | – | 6.44 | O=C(Nc1cccc(C(F)(F)F)c1)Nc1ccc2nonc2c1 [Compound 0035] | –
3 | – | 2.61 | COc1ccc(NC(=O)Nc2ccc(Cl)cc2)cc1 [Compound 0036, 1-(4-chlorophenyl)-3-(4-methoxyphenyl)urea] | –
4 | 2.61 | – | COc1ccc(NC(=O)Nc2ccc(Cl)cc2)cc1 [Compound 036, 1-(4-chlorophenyl)-3-(4-methoxyphenyl)urea] | –
5 | – | -9.74 | O=C(N/N=C/c1cccnc1)c1ccc(=O)[nH]n1 [Compound 0037] | –
6 | – | 7.27 | O=[N+]([O-])c1cc(/C=N/Nc2ccc(Br)c(Cl)c2)cs1 [Compound 0038] | –
7 | – | -4.28 | Cc1cc(N)c2ccccc2c1O [Compound 0039] | –
8 | – | -3.11 | CC(=O)NC1C(O)OC(OS(=O)(=O)O)C(O)C1OC1CC(C(=O)O)C(O)C(O)C1O (stereo not shown) [Compound 0041] | –
9 | – | -9.07 | CCOC(=O)N1CCN(C2=Nc3cc(Cl)ccc3C(C)C2)CC1 (stereo not shown) [Compound 0043] | –
10 | – | 2.33 | O=C(Nc1ccc(Cl)c(Cl)c1)Nc1ccc(Cl)c([N+](=O)[O-])c1 [Compound 0044, 1-(4-chloro-3-nitrophenyl)-3-(3,4-dichlorophenyl)urea] | –
11 | 2.33 | – | O=C(Nc1ccc(Cl)c(Cl)c1)Nc1ccc(Cl)c([N+](=O)[O-])c1 [Compound 044, 1-(4-chloro-3-nitrophenyl)-3-(3,4-dichlorophenyl)urea] | –
12 | – | – | O=C(Nc1cccc(Cl)c1)O/N=C/c1ccc(F)cc1 [Compound 0045] | ΔTm (Table 1): −8.21
13 | – | 4.3 | Cc1ccc(NC(=O)Nc2ccc(Cl)c([N+](=O)[O-])c2)cc1 [Compound 0046, 1-(4-chloro-3-nitrophenyl)-3-(p-tolyl)urea] | –
14 | 4.3 | – | Cc1ccc(NC(=O)Nc2ccc(Cl)c([N+](=O)[O-])c2)cc1 [Compound 046, 1-(4-chloro-3-nitrophenyl)-3-(p-tolyl)urea] | –
15 | – | 0.75 | N#CN=C(Nc1ccc(F)cc1)Nc1ccc(Cl)c([N+](=O)[O-])c1 [Compound 0047, 1-(4-chloro-3-nitro-phenyl)-2-cyano-3-(4-fluorophenyl)guanidine] | –
16 | 0.75 | – | N#CN=C(Nc1ccc(F)cc1)Nc1ccc(Cl)c([N+](=O)[O-])c1 [Compound 047, 1-(4-chloro-3-nitro-phenyl)-2-cyano-3-(4-fluorophenyl)guanidine] | –
17 | – | 2.61 | O=C(Nc1ccc(Cl)cc1)Nc1ccc(Cl)c([N+](=O)[O-])c1 [Compound 0048, 1-(4-chloro-3-nitrophenyl)-3-(4-chlorophenyl)urea] | –
18 | 2.61 | – | O=C(Nc1ccc(Cl)cc1)Nc1ccc(Cl)c([N+](=O)[O-])c1 [Compound 048, 1-(4-chloro-3-nitrophenyl)-3-(4-chlorophenyl)urea] | –
19 | – | 3.11 | O=C(Nc1ccc(Cl)cc1)Nc1cccc([N+](=O)[O-])c1 [Compound 0049, 1-(4-chlorophenyl)-3-(3-nitrophenyl)urea] | –
20 | 3.11 | – | O=C(Nc1ccc(Cl)cc1)Nc1cccc([N+](=O)[O-])c1 [Compound 049, 1-(4-chlorophenyl)-3-(3-nitrophenyl)urea] | –
21 | – | – | O=C(Nc1cccc(Cl)c1)O/N=C/c1ccc(F)cc1 [Compound 0051] | ΔTm (Table 1): −6.91
22 | – | -11 | CC(NC(=O)CSc1nnc(-c2ccccc2O)n1-c1ccccc1)c1ccccc1 (stereo not shown) [Compound 0052] | –
23 | – | -10.1 | N=C(N)NC(=O)c1nc(Cl)c(N)nc1N [Compound 0053] | –
24 | 2.9 | – | O=C(Nc1ccc(F)cc1)Nc1ccc(Cl)c(S(=O)(=O)C(F)(F)F)c1 [Compound 054, 1-[4-chloro-3-(trifluoromethylsulfonyl)phenyl]-3-(4-fluorophenyl)urea] | –
25 | – | -9.69 | CCOC(=O)c1cc(C#N)c(Sc2nnc(SC)s2)nc1C(F)(F)F [Compound 0055] | –
26 | – | -10.5 | O=C(CSc1nnc(-c2ccccc2)n1-c1ccc(F)cc1)NCc1ccccc1 [Compound 0057] | –
27 | – | 2.5 | O=C(Nc1ccc(F)cc1)Nc1cccc(Cl)c1 [Compound 0060, 1-(3-chlorophenyl)-3-(4-fluorophenyl)urea] | –

Row | ΔTm at 25 µM (Table 3) [°C] | ΔTm at 25 µM (Table 1) [°C] | Compound | other results
28 | 2.5 | – | O=C(Nc1ccc(F)cc1)Nc1cccc(Cl)c1 [Compound 060, 1-(3-chlorophenyl)-3-(4-fluorophenyl)urea] | –
29 | – | 2.94 | O=C(Nc1cccc(Cl)c1)Nc1ccc(Cl)c([N+](=O)[O-])c1 [Compound 0061, 1-(4-chloro-3-nitrophenyl)-3-(3-chlorophenyl)urea] | –
30 | 2.94 | – | O=C(Nc1cccc(Cl)c1)Nc1ccc(Cl)c([N+](=O)[O-])c1 [Compound 061, 1-(4-chloro-3-nitrophenyl)-3-(3-chlorophenyl)urea] | –
31 | – | 2.5 | Cc1cccc(NC(=O)Nc2cccc(Cl)c2)c1 [Compound 0063, 1-(3-chlorophenyl)-3-(m-tolyl)urea] | –
32 | 2.3 | – | O=c1c(Nc2ccc(F)cc2)c(Nc2ccc(Cl)c(C(F)(F)F)c2)c1=O [Compound 064, 3-[4-chloro-3-(trifluoromethyl)anilino]-4-(4-fluoroanilino)cyclobut-3-ene-1,2-dione] | –
33 | – | 4.44 | CSc1sc(NC(=O)Nc2cccc(C(F)(F)F)c2)cc1C#N [Compound 0065] | –
34 | – | 3 | O=C(Nc1ccc(Cl)cc1)Nc1cccc(Cl)c1 [Compound 0066, 1-(3-chlorophenyl)-3-(4-chlorophenyl)urea] | –
35 | 3 | – | O=C(Nc1ccc(Cl)cc1)Nc1cccc(Cl)c1 [Compound 066, 1-(3-chlorophenyl)-3-(4-chlorophenyl)urea] | –
36 | – | 4 | Cc1cccc(NC(=O)Nc2cccc([N+](=O)[O-])c2)c1 [Compound 0067, 1-(3-nitrophenyl)-3-(m-tolyl)urea] | –
37 | 4 | – | Cc1cccc(NC(=O)Nc2cccc([N+](=O)[O-])c2)c1 [Compound 067, 1-(3-nitrophenyl)-3-(m-tolyl)urea] | –
38 | – | 2.75 | Cc1ccc(NC(=O)Nc2cccc(Cl)c2)cc1 [Compound 0068, 1-(3-chlorophenyl)-3-(p-tolyl)urea] | –
39 | 2.75 | – | Cc1ccc(NC(=O)Nc2cccc(Cl)c2)cc1 [Compound 068, 1-(3-chlorophenyl)-3-(p-tolyl)urea] | –
40 | – | 8.06 | O=C(N/N=C/c1ccc(Br)s1)c1[nH]cc2ccccc12 [Compound 0069] | –
41 | – | -7.24 | COc1cc(C(=O)Oc2c(Cl)cc(Cl)cc2/C=N\c2cccc(C(F)(F)F)c2)cc(OC)c1OC [Compound 0070] | –
42 | – | -6.24 | Cc1ccc(C(=O)/C=C(\c2ccccc2)N2CCCCC2)cc1 [Compound 0071] | –
43 | – | 2.6 | CC(C)(C)CC(C)(C)c1ccc(O)c(Cc2ccc(Cl)cc2Cl)c1 [Compound 0073] | –
44 | – | 2.61 | O=C(Nc1cc(Cl)cc(Cl)c1)Nc1cc(-c2cccs2)n[nH]1 [Compound 0074] | –
45 | – | 2.61 | Cc1ccc(NC(=O)Nc2ccc(Br)c(C(F)(F)F)c2)cc1 [Compound 0075, 1-(4-bromo-3-(trifluoromethyl)phenyl)-3-(p-tolyl)urea] | –
46 | 2.61 | – | Cc1ccc(NC(=O)Nc2ccc(Br)c(C(F)(F)F)c2)cc1 [Compound 075, 1-(4-bromo-3-(trifluoromethyl)phenyl)-3-(p-tolyl)urea] | –
47 | – | -7.23 | O=C(Nc1ccc(F)cc1)Nc1cccc([N+](=O)[O-])c1 [Compound 0076, 1-(4-fluorophenyl)-3-(3-nitrophenyl)urea] | –
48 | 2.61 | – | O=C(Nc1ccc(F)cc1)Nc1cccc([N+](=O)[O-])c1 [Compound 076, 1-(4-fluorophenyl)-3-(3-nitrophenyl)urea] | –
49 | – | 2.25 | O=C(Nc1cccc(Cl)c1)Nc1cccc([N+](=O)[O-])c1 [Compound 0078, 1-(3-chlorophenyl)-3-(3-nitrophenyl)urea] | –
50 | 2.5 | – | O=C(Nc1cccc(Cl)c1)Nc1cccc([N+](=O)[O-])c1 [Compound 078, 1-(3-chlorophenyl)-3-(3-nitrophenyl)urea] | –
51 | – | 2.25 | O=C(Nc1ccc(Cl)c([N+](=O)[O-])c1)Nc1ccc(F)cc1C1(C(F)(F)F)N=N1 [Compound 0079, 1-(4-chloro-3-nitro-phenyl)-3-[4-fluoro-2-[3-(trifluoromethyl)diazirin-3-yl]phenyl]urea] | –
52 | 2.25 | – | O=C(Nc1ccc(Cl)c([N+](=O)[O-])c1)Nc1ccc(F)cc1C1(C(F)(F)F)N=N1 [Compound 079, 1-(4-chloro-3-nitro-phenyl)-3-[4-fluoro-2-[3-(trifluoromethyl)diazirin-3-yl]phenyl]urea] | –
53 | – | 1.6 | O=[N+]([O-])c1cc(NC2=NS(=O)(=O)N=C2Nc2ccc(F)cc2)ccc1Cl [Compound 0080, N3-(4-chloro-3-nitro-phenyl)-N4-(4-fluorophenyl)-1,1-dioxo-1,2,5-thiadiazole-3,4-diamine] | –

Row | Compound | ΔTm at 25 µM (Table 3) [°C] | ΔTm at 25 µM (Table 1) [°C] | other results
54 | Cc1cc(C(C#N)c2ccc(Cl)cc2)c(Cl)cc1NC(=O)c1cc(I)cc(I)c1O (stereo not shown) [Compound 0040] | – | -7.95 | –
55 | CC1CC(=O)Oc2cc(Oc3c([N+](=O)[O-])cc(C(F)(F)F)cc3[N+](=O)[O-])ccc21 (stereo not shown) [Compound 0042] | – | -6.23 | –
56 | CCC(C(=O)C(C)C(O)C(C)CCc1ccc(C)c(O)c1C(=O)O)C1OC(CC)(C2CCC(O)(CC)C(C)O2)CC1C (stereo not shown) [Compound 0056] | – | -5.96 | –
57 | Cc1ccc(NC(=O)Nc2cccc(C(F)(F)F)c2)cc1 [Compound 0058, 1-(p-tolyl)-3-(3-(trifluoromethyl)phenyl)urea] | – | 2.58 | –
58 | Cc1ccc(NC(=O)Nc2cccc(C(F)(F)F)c2)cc1 [Compound 058, 1-(p-tolyl)-3-(3-(trifluoromethyl)phenyl)urea] | 2.58 | – | –
59 | O=[N+]([O-])c1cc(C(F)(F)F)cc([N+](=O)[O-])c1Oc1ccc(C2SCCS2)cc1 [Compound 0062] | – | -6.9 | –
60 | CCOC(=O)CCc1ccc(Oc2c([N+](=O)[O-])cc(C(F)(F)F)cc2[N+](=O)[O-])cc1 [Compound 0072] | – | 3.39 | –
61 | O=[N+]([O-])c1cc(C(F)(F)F)cc([N+](=O)[O-])c1Oc1ccc(I)cc1 [Compound 0077] | – | 2.5 | –
